Like-named read-outs stand apart in the source and are kept apart here.
Experiments:
[1] = test system: Normal Han Wistar female adult rats; test: Study 2: rat model of PPAR-gamma activator induced cardiovascular changes leading to fluid retention and edema; type: in vivo
Procedure: Rat Model of PPAR-Gamma Activator Induced Cardiovascular Changes Leading to Fluid Retention and Edema
Normal Han Wistar female adult rats were chronically instrumented for measurement of cardiac output, blood pressure and total peripheral resistance and orally dosed (8 mg/kg, bid) with PPAR-gamma activator or vehicle (PEG400, 1 ml/kg) for 10 days. Data were collected for 7 days prior to the start of dosing, for 10 days of dosing, and for 7 days after discontinuation of dosing. […] The decrease in total peripheral resistance is believed to be the initial pharmacodynamic effect of PPAR-gamma activators leading to fluid retention and edema.

[2] = test system: Zucker Diabetic Fatty (ZDF) rats
Procedure: Model of PPAR-Gamma Activator Induced Efficacy/Glycemic Control
Two glucose-matched groups (n=6/group) of Zucker Diabetic Fatty (ZDF) rats, 7-8 weeks of age, were treated with vehicle (n-methylglucamine, 0.05M, 1 ml/kg, p.o.) or PPAR-gamma activator (5 mg/kg, bid).

[3] = test system: Normal Han Wistar female adult rats; test: Study 1: rat model of PPAR-gamma activator induced fluid retention/edema; type: in vivo; conditions: 8 mg/kg bid oral, 21 days, compared with vehicle treated control rats
Procedure: Rat Model of PPAR-Gamma Activator Induced Fluid Retention/Edema
Normal Han Wistar female adult rats were housed in metabolic cages and orally dosed (8 mg/kg, bid) with PPAR-gamma activator or vehicle (PEG400, 1 ml/kg) for 21 days. Electrolyte and water balance, plasma volume, hematocrit, and interstitial fluid volume were measured. […] In addition, there was a 50% increase in interstitial fluid volume, correlating to an edematous state.

[4] = test system: ZDF rats; conditions: for heart weight/body weight ratio versus normal range: literature normal 0.23 (0.19-0.25); for rats with continued glycemic control (non-fasted plasma glucose less than 250 mg/dl): five weeks, of 8 rats
Procedure: Less Than Daily Dosing with PPAR-gamma Activator
Three groups of 8 plasma glucose-matched ZDF rats with non-fasted glucose values greater than 250 mg/dl were dosed with PPAR-gamma activator. During the study plasma glucose and serum albumin were measured weekly, HbA1c was measured every other week, and heart weights and body weights were measured terminally. Reduction of plasma glucose and HbA1c are markers for anti-diabetic efficacy (glycemic control). Decreased plasma albumin concentration is a marker for plasma volume expansion or hemodilution. The heart weight-to-body weight ratio is a marker for increased cardiac output secondary to volume expansion.
All three groups were initially dosed with PPAR-gamma activator for one week at 5 mg/kg twice daily, in order to achieve glycemic control as shown by plasma glucose less than 250 mg/dl, and volume expansion as shown by reduced serum albumin.
Following the first week one group (Group BID) was continued on the daily dosing regimen while the other two were moved to less than daily dosing. Group BID continued to be dosed at 5 mg/kg twice daily, Group MWF was dosed at 10 mg/kg per day three times weekly (Monday/Wednesday/Friday), and Group MF was dosed at 10 mg/kg per day twice weekly (Monday/Friday). These three dosing regimens were continued for five weeks.

[5] = after dosing was discontinued (10 days of 8 mg/kg bid)

## Cc1oc(-c2ccccc2)nc1CCOc1ccc(C[C@H](Nc2ccccc2C(=O)c2ccccc2)C(=O)O)cc1 [GI262570, farglitazar]
[1]; 8 mg/kg bid oral
  onset of change in total peripheral resistance and cardiac output after the initial dose: within six hours
  time at which total peripheral resistance and cardiac output changes reached steady state: by treatment day four
[1]; 8 mg/kg bid oral, 10 days
  cardiac output: increased
  total peripheral resistance: decreased
[1]; [5]
  full recovery of total peripheral resistance and cardiac output: after four days
  time until total peripheral resistance and cardiac output began to return toward control values: ≤ 24 h
[2]; 5 mg/kg bid, after four weeks, at the time dosing was discontinued, vehicle 464 mg/dl
  average non-fasted plasma glucose: 154 mg/dL
[2]; 5 mg/kg bid, after four weeks, n=6
  fluid status of treated rats: volume expanded and two were overtly edematous
[2]; 5 mg/kg bid, four weeks
  hematocrit, end-of-treatment value: 47%
[2]; 10 days after discontinuation of 5 mg/kg bid treatment, vehicle 462 mg/dl
  average plasma glucose: 175 mg/dL
[2]; after discontinuation of 5 mg/kg bid
  time for hematocrit to return to control value: ≤ 3 days
[2]; within 3 days after discontinuation of 5 mg/kg bid
  hematocrit after discontinuation (control value): 52%
[3]
  decrease in hematocrit: 6%
  electrolyte and water retention: sustained increase
  increase in interstitial fluid volume: 50%
  increase in plasma volume: 6%
[4]; BID dose group
  heart weight/body weight ratio versus normal range: increased beyond the normal range
[4]; BID group compared to the MWF and MF dose groups
  increase in terminal heart weight to body weight ratio: 13%
[4]; BID group, throughout dosing
  serum albumin concentration versus pre-treatment baseline: remained below the pre-treatment baseline value
[4]; Group BID, 5 mg/kg twice daily
  rats with continued glycemic control (non-fasted plasma glucose less than 250 mg/dl): 8
[4]; Group MF, 10 mg/kg per day twice weekly
  rats with continued glycemic control (non-fasted plasma glucose less than 250 mg/dl): 5
[4]; Group MWF, 10 mg/kg per day three times weekly
  rats with continued glycemic control (non-fasted plasma glucose less than 250 mg/dl): 6
[4]; MWF and MF dose groups (11 responding rats) versus BID, still well below pre-dosing levels
  plasma glucose during the last two weeks of study: slightly higher
[4]; MWF and MF dose groups
  heart weight/body weight ratio versus normal range: within normal ranges
[4]; MWF and MF groups, by day 14 of reduced frequency dosing
  serum albumin concentration versus pre-treatment baseline: returned to and remained at pre-treatment baseline values
[4]; after initial week of 5 mg/kg twice daily, all rats, pre-treatment 321 mg/dl
  mean non-fasted plasma glucose: 138 mg/dL
[4]; after initial week of 5 mg/kg twice daily, all rats, pre-treatment 3.8 gm/dl
  serum albumin concentration: 3.5 gm/dl
[4]; all 19 animals with glycemic control (BID, MWF, MF groups)
  HbA1c: below 6%

Source: patent US20050107450A1, “Dosing regimen for ppar-gamma activators” (priority 2001, published 2005)
